Laboratory results published in the NIST ThermoML archive (doi:10.1021/je2005402).
Numbers after ± are expanded uncertainties.

Details: Liquid, Ebulliometric method (Recirculating still)

SMILES	vapor or sublimation pressure (363.25 K)	vapor or sublimation pressure (337.85 K)
COC(=O)OC [dimethyl carbonate]	101.32 ± 1.1 kPa	–
CO [methanol]	–	101.32 ± 1.1 kPa
